Results: US9381349B2, “Apparatus for treating cerebral neurovascular disorders including headaches by neural stimulation” (priority 1997, dated 2016)
“Also recorded” adds a separate entry of the source. Read-outs that look alike come from different tables or passages of the source.

Tests used:
[1] = test system: nerve structure; details: in vivo; cited from earlier work
[2] = in vivo; cited from earlier work
[3] = test system: tinnitus; experiment: Inhibition of tinnitus by dorsonasal administration of ropivacaine (Example 4); assay type: in vivo, human
From the text: Ropivacaine was dorsonasally administered to each of three patients using the nasal spray method or the nasal drops method described herein.

[4] = test system: acute migraine episodes; assay type: in vivo, human; set-up: key to Pain Rating After Administration: 0 = no pain, 10 = worst pain imaginable; details: for Mean Time Until Maximal Effect: no unit in table (minutes); for Pain Rating After Administration / Pain Relief: mean; for Pain Rating After Administration / Pain Relief / Rate of Pain Relief (migraine pain reduction per minute per gram of drug): 10-point pain scale
From the text: The purpose of the experiments described in this Example was to determine the efficacy of dorsonasal administration of ropivacaine for inhibition of acute migraine episodes. Ropivacaine was dorsonasally administered to individual patients experiencing head pain, other symptoms, or both, believed to be associated with an acute migraine episode. Patients assessed head pain prior to and after ropivacaine administration.
Ropivacaine-HCl (NAROPINT™, Astra USA, Westborough, Mass.) was used as the commercially-available 0.75% (w/v) solution, and was obtained in 30 milliliter, sterile injectable vials.
Three methods were used to achieve dorsonasal delivery of ropivacaine to individual patients. Ropivacaine was administered to a first group of patients by an intranasal drip method. Ropivacaine was administered to a second group using cotton swabs, the absorbent portions of which were saturated with the ropivacaine solution. Ropivacaine was administered to patients in a third group by spraying the ropivacaine solution into each nostril, using either a squeeze-type spray bottle or a metered-dose spray bottle.
The intranasal drip method used to administer ropivacaine to the first group of patients was a based on the method described by Barre (1982, Headache 22:69-73), except that the ropivacaine solution was used in place of the solution used by Bane. Approximately 0.75 milliliter to approximately 1.0 milliliter of the ropivacaine solution was administered by way of each of the nostrils of each patient.
The cotton swab method used to administer ropivacaine to the second group of patients comprised gently inserting cotton swabs, sequentially and bilaterally, into the nostrils of patients and urging the swabs dorsally until their absorbent portions contacted portions of nasal epithelium located dorsal to the middle conchae. Each swab was left in place for approximately one minute, and was then withdrawn. Approximately 0.5 milliliter of the ropivacaine solution was delivered to each nostril using this method.
Patients in a third group were administered ropivacaine by spraying less than about 0.5 milliliter of the ropivacaine solution into each of the patient's nostrils using either a sterile squeeze bottle or a sterile metered-dose spray bottle of known design. The design and operation of each of these spray bottles are well known in the art.
Prior to administration of ropivacaine, each patient was placed in a supine position with the patient's head hyperextended approximately 45 degrees and rotated approximately 30 degrees to the right side. In this position, an imaginary line extending from the region of the nasal epithelium overlying the SPG of the patient through the patient's left nostril was approximately vertical. Ropivacaine was then administered to the left nostril of the patient as described for each of the three groups of patients. Ropivacaine was administered to each patient's right nostril after rotating the patient's head approximately 30 degrees to the left. Ropivacaine was administered to both nostrils of each patient to prevent cases of unilateral migraine from developing into contralateral migraine.
Prior to ropivacaine administration, each patient rated perceived headache pain according to a standard pain scale of the type used in the art. Patients were asked to rank the severity of pain which they were experiencing on a scale from 0 (no pain) to 10 (worst pain imaginable). This ten-point pain rating scale is analogous to, but has more gradations than, the four-point rating system used by the International Headache Society (IHS; Headache Classification Committee of the International Headache Society, 1988, Cephalalgia 8(Suppl. 7):19-28). Ropivacaine was administered to one nostril of each patient, and then to the other. The time required to administer ropivacaine to both nostrils of each patient was approximately three minutes. […]

[5] = cited from earlier work
[6] = patient 4-3, 1 milliliter 0.75% (w/v) per nostril, nasal drop
[7] = ropivacaine 0.75% (w/v), 2 Metered Sprays per nostril, individual patients, pain scale 0-10
[8] = ropivacaine 0.75% (w/v), 2 Sprays per nostril (squeeze bottle), individual patients, pain scale 0-10
[9] = ropivacaine 0.75% (w/v), 2 cc Drops (nasal drip), individual patients, pain scale 0-10
[10] = ropivacaine 0.75% (w/v), Sat'd Cotton Swab, individual patients, pain scale 0-10
[11] = ropivacaine 0.75% (w/v), Sat'd Cotton Swab, individual patients, pain scale 0-10, listed as R
[12] = ropivacaine vs literature rizatriptan data (Kramer et al.)
[13] = ropivacaine, Cotton Swab, 24 patients
[14] = ropivacaine, Nasal Drops, 3 patients
[15] = ropivacaine, Nasal Spray, 10 patients
[16] = ropivacaine, nasal drops, three patients

CCCN1CCCC[C@H]1C(=O)Nc1c(C)cccc1C [Ropivacaine, ropivacaine]
Anesthetic effect of 0.75% (w/v) ropivacaine-HCl relative to lidocaine [1]: approximately equivalent to that of 3% (w/v) lidocaine
Cardiotoxicity [2]: this side effect is not exhibited
Cardiovascular and central nervous system toxicity [2]: lower cardiovascular and central nervous system toxicity than bupivacaine
Time to relief of head pain and tinnitus symptoms ([3]; patient 4-1, dorsonasal spray): within about five minutes
Decrease in head pain ([3]; patient 4-2, dorsonasal spray, non-neurovascular chronic head pain): about 2 points
Reduction in tinnitus symptoms, right ear [3, 6]: 50-75%
Tinnitus symptoms, left ear [3, 6]: complete relief
Inhibition of tinnitus, patients ([3]; three patients, nasal spray or nasal drops): All three patients experienced inhibition of tinnitus
Adverse effects of administration ([4]; human, in vivo): one patient experienced an allergic response to ropivacaine administration
Apparent allergic reaction ([4]; human, in vivo): allergic reaction between 5
Oropharyngeal numbness ([4]; human, in vivo): 6
Time to half maximal inhibition of CNvD or symptom ([4]; intranasal or dorsonasal administration): within about three minutes
Pain 10 min post-treatment [4, 7]: Pain 10 min post-treatment: 0
Pain 15 min post-treatment [4, 7]: Pain 15 min post-treatment: 5
Pain 20 min post-treatment [4, 7]: Pain 20 min post-treatment: 3
Pain 45 min post-treatment [4, 7]: Pain 45 min post-treatment: 0
Pain 60 min post-treatment [4, 7]: Pain 60 min post-treatment: 2
Pain 90 min post-treatment [4, 7]: Pain 90 min post-treatment: 0
Pain 2 min post-treatment [4, 8]: Pain 2 min post-treatment: 0
Pain 10 min post-treatment [4, 8]: Pain 10 min post-treatment: 0
Pain 15 min post-treatment [4, 8]: Pain 15 min post-treatment: 2
Pain 20 min post-treatment [4, 8]: 0
Pain 30 min post-treatment [4, 8]: 0
Pain 3 min post-treatment [4, 9]: Pain 3 min post-treatment: 0
Pain 60 min post-treatment [4, 9]: Pain 60 min post-treatment: 0
Pain 15 min post-treatment ([4]; ropivacaine 0.75% (w/v), 2 cc Drops (nasal drip), individual patients, pain scale 0-10, listed as R): Pain 15 min post-treatment: 0; also recorded: Pain 15 min post-treatment: 5
Persistence of residual pain ([4]; ropivacaine 0.75% (w/v), Sat'd Cotton Swab, P#40): Level 5 pain endured 8 hours
Pain 1 min post-treatment [4, 10]: Pain 1 min post-treatment: 0
Pain 8 min post-treatment [4, 10]: Pain 8 min post-treatment: 0
Pain 15 min post-treatment [4, 10]: Pain 15 min post-treatment: 0
Pain 30 min post-treatment [4, 10]: Pain 30 min post-treatment: 5
Pain 18 hrs post-treatment [4, 10]: Pain 18 hrs post-treatment: 8
Pain 24 hours post-treatment [4, 10]: Pain 24 hours post-treatment: 1
Pain 2 min post-treatment [4, 11]: Pain 2 min post-treatment: 1; also recorded: Pain 2 min post-treatment: 0
Pain 3 min post-treatment [4, 11]: Pain 3 min post-treatment: 0; also recorded: Pain 3 min post-treatment: 1
Pain 5 min post-treatment [4, 11]: Pain 5 min post-treatment: 0; also recorded: Pain 5 min post-treatment: 1; also recorded: Pain 5 min post-treatment: 2
Pain 10 min post-treatment [4, 11]: Pain 10 min post-treatment: 1; also recorded: Pain 10 min post-treatment: 0
Pain 20 min post-treatment [4, 11]: Pain 20 min post-treatment: 3; also recorded: Pain 20 min post-treatment: 0
Patients with significant pain reduction ([4]; ropivacaine 0.75% (w/v), cotton swab): 100%
Effectiveness to reduce pain associated with migraine ([4]; ropivacaine 0.75% (w/v), dorsonasal spray): 100%
Pain following spray ([4]; ropivacaine 0.75% (w/v), retreated with 2 Sprays 18 hrs after swab treatment (P#14), pain scale 0-10): 0
Response rate compared with lidocaine (FIG. 3) ([4]; ropivacaine vs literature lidocaine data (Maizels et al.)): nearly two-fold greater response rate
Rebound rate compared with rizatriptan [4, 12]: lower than the rebound rate following rizatriptan administration
Response rate compared with rizatriptan [4, 12]: greater than the response rate obtained by administration of rizatriptan
Onset of relief and response rate compared with sumatriptan (FIG. 3) ([4]; ropivacaine vs literature subcutaneous sumatriptan data): earlier onset of relief and a higher response rate
Mean Reduction in Pain Rating [4, 13]: 8.64 IHS points
Mean Time Until Maximal Effect [4, 13]: 7.41
Pain Rating After Administration ([4]; ropivacaine, Cotton Swab): 0.33
Pain Relief ([4]; ropivacaine, Cotton Swab): 8.73
Rebound Rate ([4]; ropivacaine, Dorsonasal Spray): 10%
Relative Efficacy (Rate of Pain Relief divided by that of intranasally spray-administered lidocaine) ([4]; ropivacaine, Dorsonasal Spray): 2.45
Rate of Pain Relief (migraine pain reduction per minute per gram of drug) ([4]; ropivacaine, Dorsonasal Spray): 24.5
Rebound Rate ([4]; ropivacaine, Dorsonasal Swab): 4%
Relative Efficacy (Rate of Pain Relief divided by that of intranasally spray-administered lidocaine) ([4]; ropivacaine, Dorsonasal Swab): 15.5
Rate of Pain Relief (migraine pain reduction per minute per gram of drug) ([4]; ropivacaine, Dorsonasal Swab): 155
Rate of Pain Relief ([4]; ropivacaine, Nasal Drops): 1.25 IHS points per minute
Mean Reduction in Pain Rating [4, 14]: 9.00 IHS points
Mean Time Until Maximal Effect [4, 14]: 26.0
Pain Rating After Administration ([4]; ropivacaine, Nasal Drops): 0.00
Pain Relief ([4]; ropivacaine, Nasal Drops): 9.00
Rate of Pain Relief ([4]; ropivacaine, Nasal Spray): 0.287 IHS points per minute
Mean Reduction in Pain Rating [4, 15]: 6.22 IHS points
Mean Time Until Maximal Effect [4, 15]: 33.9
Pain Rating After Administration ([4]; ropivacaine, Nasal Spray): 1.00
Pain Relief ([4]; ropivacaine, Nasal Spray): 6.22
Patients with complete relief ([4]; ropivacaine, all routes): 72%
Patients with migraine inhibited / significant (greater than 50%) reduction of migraine severity ([4]; ropivacaine, all routes, thirty-seven migraine patients): 92%
Average reduction in perceived pain ([4]; ropivacaine, all routes, within one hour, usually within 15 minutes or less): 90%
Rebound of migraine, patients ([4]; ropivacaine, all routes, within twenty-four hours of treatment): 5.4%
Mean time between treatment and perception of the peak effect ([4]; ropivacaine, cotton swab): 7.41 ± 1.47 min
Patients achieving a pain severity rating of zero ([4]; ropivacaine, cotton swab): 72%
Patients achieving a pain severity rating of zero or one ([4]; ropivacaine, cotton swab): 95%
Patients with rebound ([4]; ropivacaine, cotton swab): 4%
Rate of Pain Relief ([4]; ropivacaine, cotton swab): 2.32 IHS points per minute
Mean peak headache severity rating reduction ([4]; ropivacaine, cotton swab, twenty-four patients): 8.73±0.249 points
Mean post-administration pain severity rating at the time of peak effect ([4]; ropivacaine, cotton swab, twenty-four patients, mean±standard error, out of 10 points): 0.33±0.14 points
Potency relative to intranasally spray-administered lidocaine (pain relief per unit weight) ([4]; ropivacaine, dorsonasally spray-administered): 2.4 times
Potency relative to intranasally spray-administered lidocaine (pain relief per unit weight) ([4]; ropivacaine, dorsonasally swab-administered): more than 15 times
Mean time between treatment and perception of the peak effect [4, 16]: 26.00 ± 17.37 min
Migraine rebound [4, 16]: None of the three patients experienced migraine rebound
Mean peak headache severity rating reduction ([4]; ropivacaine, nasal drops, three patients, out of 10 points): 9.00 points
Mean time between treatment and perception of the peak effect ([4]; ropivacaine, nasal spray, ten patients): 33.9 ± 8.48 min
Mean peak headache severity rating reduction ([4]; ropivacaine, nasal spray, ten patients, out of 10 points): 6.22±0.66 points
Mean headache pain severity rating reduction in patients without complete relief ([4]; ropivacaine, nasal spray, the remainder of ten patients): 87.5±6.49%
Patients without rebound ([4]; ropivacaine, patients observed for up to seven days): 95%
Proportion bound to protein in vivo [5]: Approximately 95%
